# Measurements taken from patent publication US11154544B2, “Amide derivatives as Nav1.7 and Nav1.8 blockers” (RaQualia Pharma Inc., priority 2017, dated 2021).
# Where “and” joins values, the source holds several entries; their conditions need not be identical. Identical values can stand only once. Like-named read-outs stand apart in the source and are kept apart here.
# Columns and labels:
# Assay type in all cases: cell-based
# human Nav1.5 channels = human Nav1.5 channels (Homo sapiens (Human), UniProt Q14524); assay: FRET assay (FDSS); details: HEK293 cells expressing human Nav1.5, read-out: activity (IC50) against Nav1.5
# Method: (§1) This screen is used to determine the effects of compounds on human Nav1.8, and human Nav1.5 channels, utilizing the cell imaging technology by Hamamatsu Photonics's Functional Drug Screening System (FDSS). The changes of membrane potential are monitored with fluorescent membrane potential dye pair, DiSBAC2(3) and CC2-DMPE, using FRET technology.
# (§2) HEK293 cells expressing human Nav1.8 channels or human Nav1.5 channels are grown in T225 flasks, in a 5% CO2 humidified incubator to about 80% confluence. Media composition of HEK293 cells expressing human Nav1.8 channels consists of Dulbecco's Modified Eagle Medium (high glucose), 10% fetal calf serum (FCS), 100 units/mL Penicillin, 100 microgram/mL Streptomycin, 200 microgram/mL Zeocin and 500 microgram/mL Geneticine. HEK293 cells expressing human Nav1.5 channels are maintained in Dulbecco's Modified Eagle Medium (high glucose) supplemented with 10% fetal calf serum (FCS), 100 units/mL Penicillin, 100 microgram/mL Streptomycin and 500 microgram/mL Geneticine.
# (§3) Seed each cell lines (1.5×10^4 cells/well) into 384-well plates prior to experimentation.
# (§4) Incubate at 37° C. in 5% CO2 for 24 hours.
# (§5) Wash each well with buffer #1 (140 mM NaCl, 4.5 mM KCl, 10 mM D-Glucose, 2 mM CaCl2, 1 mM MgCl2, 10 mM HEPES, pH 7.4 adjusted with. NaOH) twice using plate washer.
# (§6) Add 1st loading solution containing 7.5 microM CC2-DMPE and 0.06% Pluronic F-127 in buffer #1.
# (§7) Incubate the plate at rt in dark for 0.5 hours.
# (§8) Wash each well with buffer #2 (160 mM Choline, 10 mM D-Glucose, 0.1 mM CaCl2, 1 mM MgCl2, 1.0 mM HEPES, pH 7.4 adjusted with KOH) twice using plate washer.
# (§9) Add 2nd loading solution containing 75 microM DiSBAC2(3), 2.5 mM Xylene Fast Yellow, 10 microM Deltamethrin or 100 microM veratridine and 0.02% Pluronic F-127 in buffer #2.
# (§10) Add compound solutions into the assay plate and leave the plate for 30 minutes under the dark at rt.
# (§11) Monitor the fluorescent membrane potentials before and after the addition of buffer #2 by FDSS.
# (§12) The data is analyzed and reported as normalized ratios of intensities measured in the 465 nm and 575 nm channels. The process of calculating these ratios is performed as follows: FR=(FI465Max/FI575Min)−(FI465B/FI575B) [Math.2]
# (§13) “FI465B”=the mean of fluorescence intensity as baseline (before Na^+ ligand addition) at 465 nm
# (§14) “FI575B”=the mean of fluorescence intensity as baseline (before Na^+ ligand addition) at 575 nm
# (§15) “FI465Max”=maximum fluorescence intensity at 465 nm after Na^+ stimulation
# (§16) “FI575Min”=minimum fluorescence intensity at 575 nm after Na^+ stimulation
# (§17) This analysis is performed using a computerized specific program designed for FDSS generated data. Fluorescence ratio values are plotted using XLfit to determine an IC50 value for each compound.
# human Nav1.8 channels = human Nav1.8 channels (Homo sapiens (Human), UniProt Q9Y5Y9); assay: FRET assay (FDSS)
# human Nav1.8 channels, sequence (Q9Y5Y9 whole entry): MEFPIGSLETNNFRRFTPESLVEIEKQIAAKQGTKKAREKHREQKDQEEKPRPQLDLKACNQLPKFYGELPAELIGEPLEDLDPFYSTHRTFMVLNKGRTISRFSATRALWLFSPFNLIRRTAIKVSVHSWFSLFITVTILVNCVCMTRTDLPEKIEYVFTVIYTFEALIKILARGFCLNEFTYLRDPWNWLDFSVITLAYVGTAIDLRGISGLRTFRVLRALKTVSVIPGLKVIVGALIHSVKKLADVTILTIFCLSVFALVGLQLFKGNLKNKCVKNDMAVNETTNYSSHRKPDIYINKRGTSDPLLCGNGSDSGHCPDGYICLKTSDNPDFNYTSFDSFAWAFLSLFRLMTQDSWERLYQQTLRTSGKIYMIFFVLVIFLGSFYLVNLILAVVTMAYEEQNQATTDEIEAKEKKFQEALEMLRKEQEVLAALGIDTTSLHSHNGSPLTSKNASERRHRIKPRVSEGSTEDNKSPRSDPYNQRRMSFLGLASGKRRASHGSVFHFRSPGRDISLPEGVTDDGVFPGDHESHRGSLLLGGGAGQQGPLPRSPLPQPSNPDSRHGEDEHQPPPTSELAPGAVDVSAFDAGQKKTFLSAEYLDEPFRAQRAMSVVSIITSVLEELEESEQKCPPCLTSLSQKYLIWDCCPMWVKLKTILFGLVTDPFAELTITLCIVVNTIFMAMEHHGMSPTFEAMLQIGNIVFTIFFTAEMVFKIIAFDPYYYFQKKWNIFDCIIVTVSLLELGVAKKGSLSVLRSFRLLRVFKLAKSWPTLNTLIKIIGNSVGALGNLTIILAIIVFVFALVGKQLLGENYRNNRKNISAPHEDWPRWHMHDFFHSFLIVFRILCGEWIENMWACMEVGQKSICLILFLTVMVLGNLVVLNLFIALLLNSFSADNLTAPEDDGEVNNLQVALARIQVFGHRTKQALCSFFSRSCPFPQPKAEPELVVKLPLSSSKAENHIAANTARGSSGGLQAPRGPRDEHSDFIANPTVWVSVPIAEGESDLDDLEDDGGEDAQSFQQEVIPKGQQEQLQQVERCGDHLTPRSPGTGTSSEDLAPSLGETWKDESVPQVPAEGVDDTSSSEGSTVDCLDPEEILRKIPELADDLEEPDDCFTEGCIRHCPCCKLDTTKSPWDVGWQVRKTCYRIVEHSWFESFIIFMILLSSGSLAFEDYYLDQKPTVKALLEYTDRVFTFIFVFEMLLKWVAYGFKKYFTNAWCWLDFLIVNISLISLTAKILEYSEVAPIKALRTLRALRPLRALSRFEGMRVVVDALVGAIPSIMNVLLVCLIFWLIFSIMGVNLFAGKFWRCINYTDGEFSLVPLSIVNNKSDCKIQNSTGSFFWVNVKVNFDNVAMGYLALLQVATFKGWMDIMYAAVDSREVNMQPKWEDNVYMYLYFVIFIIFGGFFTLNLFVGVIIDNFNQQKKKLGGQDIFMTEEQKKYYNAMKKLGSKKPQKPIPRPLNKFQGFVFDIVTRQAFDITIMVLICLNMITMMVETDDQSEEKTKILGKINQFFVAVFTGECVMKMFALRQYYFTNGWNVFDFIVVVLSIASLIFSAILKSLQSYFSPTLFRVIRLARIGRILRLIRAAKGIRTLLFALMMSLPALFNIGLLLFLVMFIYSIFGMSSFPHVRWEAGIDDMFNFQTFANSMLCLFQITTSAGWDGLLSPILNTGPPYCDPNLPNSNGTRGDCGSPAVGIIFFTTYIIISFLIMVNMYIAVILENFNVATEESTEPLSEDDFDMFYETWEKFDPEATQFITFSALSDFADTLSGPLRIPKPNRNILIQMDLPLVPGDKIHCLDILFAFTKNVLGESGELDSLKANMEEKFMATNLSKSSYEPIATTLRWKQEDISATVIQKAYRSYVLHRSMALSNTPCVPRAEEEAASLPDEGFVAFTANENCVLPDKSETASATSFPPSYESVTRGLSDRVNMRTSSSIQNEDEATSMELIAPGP
# Method: as §1, §2, §3, §4, §5, §6, §7, §8, §9, §10, §11, §12, §13, §14, §15, §16, §17
# Nav1.7 [1] = biological target: T1, Nav1.7 (Homo sapiens (Human), UniProt Q15858); assay: EFS-FRET assay
# T1 sequence (Q15858 whole entry): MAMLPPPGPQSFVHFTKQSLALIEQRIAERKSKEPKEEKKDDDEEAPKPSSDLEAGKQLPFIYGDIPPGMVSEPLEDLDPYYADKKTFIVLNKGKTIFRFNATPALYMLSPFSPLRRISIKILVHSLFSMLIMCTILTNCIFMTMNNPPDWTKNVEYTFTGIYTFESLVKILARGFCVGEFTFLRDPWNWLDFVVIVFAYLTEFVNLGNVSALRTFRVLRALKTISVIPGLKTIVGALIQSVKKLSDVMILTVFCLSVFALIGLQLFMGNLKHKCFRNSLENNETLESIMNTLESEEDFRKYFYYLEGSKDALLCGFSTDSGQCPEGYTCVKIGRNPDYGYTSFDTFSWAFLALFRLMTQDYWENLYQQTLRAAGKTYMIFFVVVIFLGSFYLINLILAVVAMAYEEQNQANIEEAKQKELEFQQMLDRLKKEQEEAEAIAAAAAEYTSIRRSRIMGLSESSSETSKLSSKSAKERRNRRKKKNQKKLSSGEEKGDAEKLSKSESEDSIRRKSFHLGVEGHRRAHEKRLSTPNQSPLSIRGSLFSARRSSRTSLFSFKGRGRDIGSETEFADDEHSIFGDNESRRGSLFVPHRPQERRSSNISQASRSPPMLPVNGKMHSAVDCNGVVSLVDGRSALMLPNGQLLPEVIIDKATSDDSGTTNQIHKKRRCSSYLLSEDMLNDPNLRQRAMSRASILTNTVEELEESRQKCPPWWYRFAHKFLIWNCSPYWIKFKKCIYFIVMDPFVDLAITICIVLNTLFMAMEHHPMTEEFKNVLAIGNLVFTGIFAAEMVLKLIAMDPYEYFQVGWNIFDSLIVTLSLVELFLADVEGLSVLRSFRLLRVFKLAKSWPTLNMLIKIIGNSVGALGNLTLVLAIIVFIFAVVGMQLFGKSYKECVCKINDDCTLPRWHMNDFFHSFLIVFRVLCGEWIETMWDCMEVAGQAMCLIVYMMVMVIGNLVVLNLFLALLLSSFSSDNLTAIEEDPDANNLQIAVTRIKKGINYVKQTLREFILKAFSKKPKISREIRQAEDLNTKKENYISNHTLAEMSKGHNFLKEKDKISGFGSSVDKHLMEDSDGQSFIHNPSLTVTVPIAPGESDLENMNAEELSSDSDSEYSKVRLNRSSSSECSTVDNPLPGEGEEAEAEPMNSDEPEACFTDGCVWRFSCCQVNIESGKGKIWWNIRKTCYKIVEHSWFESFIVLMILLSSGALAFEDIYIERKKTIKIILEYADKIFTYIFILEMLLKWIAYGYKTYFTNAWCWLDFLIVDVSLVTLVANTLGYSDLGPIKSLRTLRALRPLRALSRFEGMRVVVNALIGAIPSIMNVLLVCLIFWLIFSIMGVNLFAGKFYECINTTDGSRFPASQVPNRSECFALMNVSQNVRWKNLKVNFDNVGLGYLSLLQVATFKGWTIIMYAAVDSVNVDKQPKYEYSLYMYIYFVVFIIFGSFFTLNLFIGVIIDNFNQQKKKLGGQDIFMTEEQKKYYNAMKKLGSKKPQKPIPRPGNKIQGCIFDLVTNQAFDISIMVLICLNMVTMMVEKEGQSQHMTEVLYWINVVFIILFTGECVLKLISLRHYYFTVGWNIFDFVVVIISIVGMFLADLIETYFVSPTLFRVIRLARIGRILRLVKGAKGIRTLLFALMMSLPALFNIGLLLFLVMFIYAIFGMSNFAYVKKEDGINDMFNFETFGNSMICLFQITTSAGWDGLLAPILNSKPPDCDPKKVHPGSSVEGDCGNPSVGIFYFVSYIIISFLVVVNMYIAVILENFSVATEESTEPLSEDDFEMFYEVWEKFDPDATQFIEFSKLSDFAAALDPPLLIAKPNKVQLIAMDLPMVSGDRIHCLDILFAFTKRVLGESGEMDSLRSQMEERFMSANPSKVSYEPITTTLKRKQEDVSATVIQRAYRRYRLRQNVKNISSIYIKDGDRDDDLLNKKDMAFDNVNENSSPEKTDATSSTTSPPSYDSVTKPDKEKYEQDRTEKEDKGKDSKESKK
# Method: This screen is used to determine the effects of compounds on human Nav1.7 channels, utilizing electrical field stimulation (EFS) system in 96-well plate format on FDSS (Hamamatsu Photonics) platform. The change of membrane potential is monitored with FRET dye pair, DiSBAC2(3) and PTS 18.
# CHO (Chinese hamster ovary) cells expressing human Nav1.7 channels are grown in T225 flasks, in a 5% CO2 humidified incubator to about 80% confluence. Media composition consists of HAM/F^.12 with Glutamax I, 10% FCS, 100 units/mL penicillin and 100 microgram/mL hygromycin.
# Seed each cell lines (1×10^5 cells/well) into 96-well plates prior to experimentation.
# Incubate at 37° C. in 5% CO2, for 24 hours.
# Wash each well with assay buffer (140 mM NaCl, […], 10 mM D-Glucose, 2 mM CaCl2, 1 mM MgCl2, 10 mM HEPES, pH 7.4 adjusted with NaOH) twice.
# Add 1st loading solution containing 10 microM PTS18 and 0.06% Pluronic F-127 in assay buffer.
# Incubate the plate at rt in dark for 1 hour. • Remove 1st loading solution and add 2nd loading solution containing 12.5 microM DiSBAC2(3), 1.25 mM Xylene Fast Yellow and 0.0075% Pluronic F-127 in assay buffer. • Place the plate under the dark at rt for 25 minutes. • Add compound solutions into the assay plate. • Set the assay plate in FDSS and place an EFS device on the plate. • Measure EFS-induced fluorescent response by FDSS.
# The data are analyzed and reported as normalized ratios of intensities measured at […]. The process of calculating these ratios is performed as follows:
# This analysis is performed using a computerized specific program designed for
# FDSS generated data. Fluorescence ratio values are plotted using XLfit to determine an IC50 value for each, compound.
# Nav1.7 [2] = biological target: T1, Nav1.7; assay: Electrophysiology assay, whole cell patch clamp, affinity to inactivated state; details: read-out: activities (Ki) against Nav1.7
# Method: Whole cell patch clamp recording is used to assess the efficacy or selectivity of Na channel blocker on human voltage gated sodium channels. Na channel expressing cells are dissociated by 0.05% Trypsine-EDTA or Accutase, and then seeded on cover glass for 2-24 hrs.
# Manual patch clamp recordings are conducted at rt using the voltage-clamp amplifier (Axon Instruments or HEKA electronik). Electrodes are pulled with P-97 electrode puller (Sutter Instrument). The electrode resistances are 1-3 MOhm when intracellular solution is filled. Currents are lowpass filtered between 2-5 kHz and digitally sampled at 10 kHz.
# The extracellular and intercellular solutions for human Nav1.7 and Nav1.5 consist of the following composition: […]
# The normalized steady-state inactivation curve is constructed using 2 sec (for vehicle) or 60 sec (for drugs) conditioning pulse to different potentials followed immediately by the test pulse to −10 mV. […] The affinity of test compound to resting state of Na channels (Kresting or Kr) is assessed by depolarizing test pulse from a negative holding potential of −130 mV, where virtually all channels are in the resting state. Kr value is calculated by a conventional 1:1 binding model: Kresting(Kr)={[drug]Imax,drug/(Imax, control−Imax, drug)} [Math.8] • where Kresting (=Kr) is a dissociation constant for the resting state and [drug] is compound concentration. […]
# [3] = EFS-FRET, CHO cells expressing human Nav1.7, read-out: IC50 against Nav1.7
# [4] = Table 1, read-out: Nav1.7 activity (IC50)
IC50 (Nav1.7 [1]; [3]),Structure (SMILES),other results
–,"CC(CNC(=O)c1ccnc(NC(=O)C2CC2)c1)Oc1ccc(C(F)(F)F)cc1 (centres unmarked) [Example 1, 2-(cyclopropanecarboxamido)-N-(2-(4-(trifluoromethyl)phenoxy)propyl)isonicotinamide]","IC50 (human Nav1.5 channels): > 30000 nM; IC50 (human Nav1.8 channels; FRET, HEK293 cells expressing human Nav1.8, read-out: IC50 against Nav1.8): 650 nM"
< 500 nM,CCC(=O)Nc1cc(C(=O)NCCNc2ncc(C(F)(F)F)cc2Cl)ccn1 [Example 3],Ki (Nav1.7 [2]): 960 nM
< 500 nM,CC(=O)Nc1cc(C(=O)NCCNc2ncc(C(F)(F)F)cc2Cl)cc(C)n1 [Example 4],Ki (Nav1.7 [2]): 520 nM
370 nM and < 500 nM,CC(C)C(=O)Nc1cc(C(=O)NCCOc2ncc(C(F)(F)F)cc2Cl)ccn1 [Example 13],IC50 (Nav1.7 [1]; [4]): 370 nM; activity against Nav1.8 (human Nav1.8 channels): good activity
190 nM and < 500 nM,Cc1cc(C(=O)NCCOc2ncc(C(F)(F)F)cc2Cl)cc(NC(=O)C(C)C)n1 [Example 35],IC50 (Nav1.7 [1]; [4]): 190 nM; activity against Nav1.8 (human Nav1.8 channels): good activity
< 500 nM,CCC(=O)Nc1cc(C(=O)NCCOc2ccc(C(F)(F)F)cc2OC)ccn1 [Example 127],–
< 500 nM,COc1cc(C(F)(F)F)ccc1OCCNC(=O)c1cc(C)nc(NC(C)=O)c1 [Example 128],–
< 500 nM,CCC(=O)Nc1cc(C(=O)NCCOc2ccc(C(F)(F)F)cc2OC)cc(C)n1 [Example 129],–
< 500 nM,COc1cc(C(F)(F)F)ccc1OCCNC(=O)c1ccnc(NC(=O)C2CC2)c1 [Example 130],–
< 500 nM,COc1cc(C(F)(F)F)ccc1OCCNC(=O)c1ccnc(NC(=O)C(C)C)c1 [Example 131],–
< 500 nM,COc1cc(C(F)(F)F)ccc1OCCNC(=O)c1cc(C)nc(NC(=O)C2CC2)c1 [Example 132],–
< 500 nM,COc1cc(C(F)(F)F)ccc1OCCNC(=O)c1cc(C)nc(NC(=O)C(C)C)c1 [Example 133],–
< 500 nM,COc1cc(C(F)(F)F)ccc1OCCNC(=O)c1ccnc(NC(=O)C2CC2)n1 [Example 134],–
< 500 nM,CC(=O)Nc1cc(C(=O)NCCOc2ccc(C(F)(F)F)cc2C)ccn1 [Example 138],–
< 500 nM,CCC(=O)Nc1cc(C(=O)NCCOc2ccc(C(F)(F)F)cc2C)ccn1 [Example 139],–
< 500 nM,CC(=O)Nc1cc(C(=O)NCCOc2ccc(C(F)(F)F)cc2C)cc(C)n1 [Example 140],–
< 500 nM,CCC(=O)Nc1cc(C(=O)NCCOc2ccc(C(F)(F)F)cc2C)cc(C)n1 [Example 141],–
< 500 nM,Cc1cc(C(F)(F)F)ccc1OCCNC(=O)c1ccnc(NC(=O)C2CC2)c1 [Example 142],–
< 500 nM,Cc1cc(C(F)(F)F)ccc1OCCNC(=O)c1ccnc(NC(=O)C(C)C)c1 [Example 143],–
< 500 nM,Cc1cc(C(=O)NCCOc2ccc(C(F)(F)F)cc2C)cc(NC(=O)C(C)C)n1 [Example 145],–
< 500 nM,Cc1cc(C(F)(F)F)ccc1OCCNC(=O)c1ccnc(NC(=O)C2CC2)n1 [Example 146],–
< 500 nM,CCC(=O)Nc1cc(C(=O)NCCOc2ccc(OC(F)(F)F)c(F)c2)ccn1 [Example 148],–
< 500 nM,CC(C)C(=O)Nc1cc(C(=O)NCCOc2ccc(OC(F)(F)F)c(F)c2)ccn1 [Example 149],–
< 500 nM,O=C(NCCOc1ccc(OC(F)(F)F)c(F)c1)c1ccnc(NC(=O)C2CC2)n1 [Example 150],–
< 500 nM,O=C(NCCOc1ccc(OC(F)(F)F)c(F)c1)c1ccnc(NC(=O)C2CC2)c1 [Example 151],–
< 500 nM,CC(=O)Nc1cc(C(=O)NCCOc2ccc(OC(F)(F)F)c(F)c2)cc(C)n1 [Example 152],–
< 500 nM,CC(=O)Nc1cc(C(=O)NCCOc2ccc(OC(F)(F)F)c(F)c2)ccn1 [Example 154],–

Structure (SMILES),IC50 (Nav1.7 [1]; [3]),other results
"O=C(NCCOc1ncc(C(F)(F)F)cc1Cl)c1ncccc1Cl [No. 1-3, reference compound]",> 3000 nM,IC50 (Nav1.7 [1]; [4]): > 3000 nM
"O=C(NCCOc1ncc(C(F)(F)F)cc1Cl)c1cccnc1C(F)(F)F [No. 1-63, reference compound]",> 3000 nM,IC50 (Nav1.7 [1]; [4]): > 3000 nM
